From patent US12410153B2, “Compounds, compositions and methods” (Avalo Therapeutics, Inc., priority 2014, dated 2025)

Test system: systemic blood pressure and heart rate
Assay: Blood pressure profile in chronically instrumented (telemetered) rats
Format: in vivo, rat
Conditions: for DAP change / PP change / SAP change / Activity change / HR change / MAP change: 1 hour post dose, vehicle subtracted, mean ± SEM; for Activity change / HR change / MAP change: listed as crystalline Form II of Compound (I)
Experimental: A single oral gavage dose was administered (volume: 5 mL/kg). […] Following the completion of the Latin square, two additional dose concentrations were evaluated (0.6 and 10 mg/kg, n=3 per group).
All IV doses were administered in manually restrained rats via tail vena-puncture. It should be noted that vehicle controls were also administered.
A 24-hour recording was performed prior to dosing (vehicle alone) and after each oral dose.

[1] = 1 mg/kg PO in β1 AR blocked animals (atenolol 1 mg/kg), 1 hour post dosing

`Cc1ccc(COC(=O)N2CC[C@H](CNc3ncccn3)[C@H](F)C2)cc1` [Form II, 4-methylbenzyl (3S, 4R)-3-fluoro-4-[(pyrimidin-2-ylamino)methyl] piperidine-1-carboxylate] was tested, and the DAP change (0.3 mg/kg PO) was 4.1 ± 0.9 mmHg, the PP change (0.3 mg/kg PO) was 0.1 ± 1.0 mmHg and the SAP change (0.3 mg/kg PO) was 4.3 ± 1.2 mmHg. For the same compound, the Activity change (0.3 mg/kg PO) was 0.012±0.025 arbitrary unit, the HR change (0.3 mg/kg PO) was 15±10 bpm and the MAP change (0.3 mg/kg PO) was 4.2±0.9 mmHg. It also gave a DAP change (0.6 mg/kg PO) of 7.8 ± 1.1 mmHg, a PP change (0.6 mg/kg PO) of −1.5 ± 1.4 mmHg and an SAP change (0.6 mg/kg PO) of 6.3 ± 1.6 mmHg. The Activity change (0.6 mg/kg PO) was 0.003±0.033 arbitrary unit, the HR change (0.6 mg/kg PO) was 10±15 bpm and the MAP change (0.6 mg/kg PO) was 6.8±1.2 mmHg. The “MAP increase with dosing” value (1 mg/kg PO in the setting of α1 AR blockade (prazosin 200 μg/kg)) was 11.3±2.0 mmHg, the “HR change vs pre-blockade baseline” value (1 mg/kg PO in the setting of α1 AR blockade (prazosin 200 μg/kg), 1 hour post dosing) was 118±20 bpm and the HR increase post-dosing (1 mg/kg PO in β1 AR blocked animals (atenolol 1 mg/kg)) was 53±17 bpm. For the same compound, the “HR change vs pre-blockade baseline” value [1] was −7±17 bpm, the “MAP change vs pre-blockade baseline” value [1] was 5.8±4.8 mmHg and the DAP change (1.0 mg/kg PO) was 15.2 ± 3.0 mmHg. The PP change (1.0 mg/kg PO) was 1.4 ± 1.1 mmHg, the SAP change (1.0 mg/kg PO) was 16.8 ± 3.7 mmHg and the Activity change (1.0 mg/kg PO) was 0.049±0.037 arbitrary unit. The HR change (1.0 mg/kg PO) was 34±13 bpm, the MAP change (1.0 mg/kg PO) was 15.7±3.2 mmHg and the DAP change (3.0 mg/kg PO) was 15.0 ± 2.0 mmHg. It also gave a PP change (3.0 mg/kg PO) of 4.0 ± 0.9 mmHg, an SAP change (3.0 mg/kg PO) of 19.2 ± 2.4 mmHg and an Activity change (3.0 mg/kg PO) of 0.174±0.048 arbitrary unit. For the same compound, the HR change (3.0 mg/kg PO) was 66±9 bpm, the MAP change (3.0 mg/kg PO) was 17.1±2.3 mmHg and the DAP change (10 mg/kg PO) was 17.3 ± 1.9 mmHg. The PP change (10 mg/kg PO) was 3.1 ± 1.3 mmHg, the SAP change (10 mg/kg PO) was 20.7 ± 2.4 mmHg and the Activity change (10 mg/kg PO) was 0.232±0.057 arbitrary unit. For the same compound, the HR change (10 mg/kg PO) was 71±25 bpm and the MAP change (10 mg/kg PO) was 19.1±2.4 mmHg.
